From ChEMBL document CHEMBL1795326, “Pharmacophore based virtual screening, molecular docking studies to design potent heat shock protein 90 inhibitors” (Eur J Med Chem, 2011)

Assay: Inhibition of HSP90

| Structure (SMILES) | IC50 |
| --- | --- |
| Cc1nc(N)nc2c1/C(=N/O)C[C@@H](c1ccc(F)cc1-c1cccnc1)C2 | 30 µM |
| CCOC(=O)NCc1ccc(-n2cnnc2-c2cc(C(C)C)c(O)cc2O)cc1 | 40 µM |
| Oc1ccc2c(-c3cc(Br)c(O)cc3O)noc2c1 | 190 µM |
| Cc1ccccc1[C@H]1CCCN1C(=O)c1ccc(O)cc1O | 60 µM |
